Reference: ChEMBL document CHEMBL1123940, “Carbamate ester derivatives as potential prodrugs of the presynaptic dopamine autoreceptor agonist (-)-3-(3-hydroxyphenyl)-N-propylpiperidine” (J Med Chem, 1987)

Molecular target: Acetylcholinesterase (Homo sapiens, UniProt P22303)
Test: Inhibitory activity against acetylcholinesterase in human blood
Format: tissue-based

Acetylcholinesterase, sequence (P22303 whole entry): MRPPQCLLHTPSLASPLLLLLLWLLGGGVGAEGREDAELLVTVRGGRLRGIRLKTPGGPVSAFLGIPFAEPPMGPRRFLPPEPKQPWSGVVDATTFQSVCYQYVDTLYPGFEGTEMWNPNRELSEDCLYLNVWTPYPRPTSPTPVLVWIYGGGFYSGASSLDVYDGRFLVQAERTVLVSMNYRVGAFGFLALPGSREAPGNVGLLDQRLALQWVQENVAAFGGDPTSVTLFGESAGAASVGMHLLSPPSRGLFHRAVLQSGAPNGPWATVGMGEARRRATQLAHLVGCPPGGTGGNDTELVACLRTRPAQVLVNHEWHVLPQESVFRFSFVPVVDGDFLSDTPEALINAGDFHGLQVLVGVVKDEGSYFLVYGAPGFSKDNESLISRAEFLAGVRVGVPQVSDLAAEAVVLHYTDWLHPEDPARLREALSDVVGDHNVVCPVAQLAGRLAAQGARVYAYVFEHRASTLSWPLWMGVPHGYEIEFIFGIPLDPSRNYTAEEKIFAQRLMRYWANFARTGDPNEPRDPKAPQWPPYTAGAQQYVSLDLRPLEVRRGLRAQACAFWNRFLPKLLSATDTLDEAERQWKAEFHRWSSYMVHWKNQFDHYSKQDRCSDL

## CCCN1CCCC(c2cccc(OC(=O)NC(C)C)c2)C1 (stereo unspecified)
  IC50: 10 µM
